“Also recorded” adds a separate entry of the source.
Assays:
[1] = tested on: RAGE expression in ARPE-19 cells; test: AGE (CML-BSA)-induced RAGE expression in ARPE-19 cells (immunoblot); type: cell-based, human; conditions: ARPE-19 cells on CML-BSA coated plates
Protocol: Experiments studying the biology of RAGE in cultured RPE cells using the ARPE-19 human RPE cell line were conducted. As shown in immunoblots (FIG. 17), ARPE-19 cells express at least 4 isoforms of RAGE ranging from 45-50 kDa in cell lysates, and secrete these isoforms into conditioned media. […] Because RAGE ligation activates the transcription factor NF-κB, enhanced expression of RAGE greatly promotes pro-inflammatory signaling. […] This would prevent “feed-forward” pro-inflammatory increases in RAGE expression itself by RAGE ligation.

ARPE-19 cells = test: AGE-BSA induced apoptosis of ARPE-19 cells (Live/Dead stain); type: cell-based, human; conditions: AGE-BSA 25 μM, 40 h; test substance 200 μM
Protocol: The ability of AGE products to induce RPE cell apoptosis was investigated. ARPE-19 cells were grown to confluence on round coverslips, then transferred to new dishes for exposure to 25 μM AGE-BSA for 40 h. Apoptosis was then assayed with Molecular Probes Fixable Live/Dead Cell Stain Kit (L11101, Eugene, Oreg.). […] Nuclei are stained […] with DAPI; dead cells are stained green. A. BSA control. Some dead cells are noted at the edges of the coverslip, but live and dead cells are interspersed at the interface. B. AGE-BSA (25 μM). Significant cell death is seen around the edges, and the boundary between live and dead cells is stark. C. AGE-BSA (25 μM)+ODSH (200 μM).

[2] = tested on: LL-37 induced skin inflammation; test: SAGE topical treatment in LL-37 rosacea model; type: in vivo, Balb/c mice; conditions: topical administration
Protocol: Balb/c mice were shaved […] area of skin on the back. We then began topical application of a hyaluronan-cased emollient containing 5% SAGEs (active emollient) or hyaluronic acid based emollient alone to this area of skin every 12 hours. Twenty-four hours later, we injected 40 μL of vehicle (PBS) or cationic peptide (at 320 μM concentration) subcutaneously into the shaved skin in the manner described previously. Injections and topical emollient applications were repeated every 12 h thereafter. Forty-eight hours after the initial injection (four injections in total), animals were lightly anesthetized as described previously. […] The intensity of erythema was assessed as a redness score (from 1 to 5), and the area of erythema was measured with calipers. […]
For each mouse, tissue biopsies (6 mm diameter hole punch) were taken immediately, weighted, frozen and stored at −80° C. Tissue MPO activity was measured using a method by Suzuki et. al. (Suzuki K, Ota H, Sasagawa S, Sakatani T, Fujikura T. Assay method for myeloperoxidase in human polymorphonuclear leukocytes. Anal Biochem 132:345-352, 1983) as modified by Young et. al. (Young J M, Spires D A, Bedord C J, Wagner B, Ballaron S J, De oung LM. The mouse ear inflammatory response to topical arachidonic acid. J Invest Dermatol 82:367-371, 1984). […] MPO enzyme activity was assessed at an absorbance wavelength of 630 nm. […]

[3] = molecular target: T1, Hageman factor (Factor XII) (Homo sapiens, UniProt P00748); test: Hageman factor (Factor XII) activation in pooled human plasma, amidolytic activity; type: biochemical; conditions: FIG. 19
T1 construct: from tissue; host or cells: pooled human plasma
T1 sequence (P00748 20-615): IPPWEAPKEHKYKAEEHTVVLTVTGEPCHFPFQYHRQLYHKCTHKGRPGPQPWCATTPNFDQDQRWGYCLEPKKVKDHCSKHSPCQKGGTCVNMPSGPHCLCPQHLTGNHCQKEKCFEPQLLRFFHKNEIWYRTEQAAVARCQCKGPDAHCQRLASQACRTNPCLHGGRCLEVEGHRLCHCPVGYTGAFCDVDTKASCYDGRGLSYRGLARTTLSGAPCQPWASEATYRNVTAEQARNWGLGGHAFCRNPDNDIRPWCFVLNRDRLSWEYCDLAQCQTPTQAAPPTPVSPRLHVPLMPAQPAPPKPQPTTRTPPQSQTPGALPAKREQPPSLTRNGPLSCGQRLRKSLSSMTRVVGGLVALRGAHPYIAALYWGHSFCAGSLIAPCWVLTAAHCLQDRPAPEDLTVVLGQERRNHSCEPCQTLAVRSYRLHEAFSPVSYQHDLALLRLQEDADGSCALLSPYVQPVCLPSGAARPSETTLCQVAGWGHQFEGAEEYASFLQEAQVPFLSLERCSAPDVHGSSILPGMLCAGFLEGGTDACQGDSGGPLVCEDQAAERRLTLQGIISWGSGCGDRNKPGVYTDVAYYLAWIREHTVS
Protocol: Nat Biotech 26:669-675, 2008). […] Amidolytic activity specific for active kallikrein was determined by adding D-Pro-Phe-Arg-p-NA and following change in absorbance at […].

Xa = test: Anti-Xa anticoagulant activity; type: biochemical
IIa = test: Anti-IIa anticoagulant activity; type: biochemical

2-O, 3-O desulfated heparin [ODSH]
up-regulation of RAGE expression by CML-BSA [1]: prevented up-regulation of RAGE expression
AGE-induced apoptosis (ARPE-19 cells): some protection but significant apoptosis still occurs; also recorded: reduced

Hyaluronic acid [HA, reference compound]
MPO activities in LL-37 rosacea model, SAGE vs. HA [2]: did not alleviate
inflammation in LL-37 rosacea model, SAGE vs. HA [2]: did not alleviate inflammation

heparin
concentration that activates Factor XII [3]: 400 ng/mL
anti-Xa anticoagulant activity (Xa): 150 U/mg
anti-IIa anticoagulant activity (IIa): 150 U/mg
